# Measured values published in patent publication US20150057243A1, “Compositions and Methods for the Inhibition of Methyltransferases” (Northeastern University, priority 2012, published 2015).
# Key:
# [1] = biological target: T1, human betaine-homocysteine S-methyltransferase (Homo sapiens, UniProt Q93088); conditions: cited from earlier work
# T1 sequence (Q93088 1-406): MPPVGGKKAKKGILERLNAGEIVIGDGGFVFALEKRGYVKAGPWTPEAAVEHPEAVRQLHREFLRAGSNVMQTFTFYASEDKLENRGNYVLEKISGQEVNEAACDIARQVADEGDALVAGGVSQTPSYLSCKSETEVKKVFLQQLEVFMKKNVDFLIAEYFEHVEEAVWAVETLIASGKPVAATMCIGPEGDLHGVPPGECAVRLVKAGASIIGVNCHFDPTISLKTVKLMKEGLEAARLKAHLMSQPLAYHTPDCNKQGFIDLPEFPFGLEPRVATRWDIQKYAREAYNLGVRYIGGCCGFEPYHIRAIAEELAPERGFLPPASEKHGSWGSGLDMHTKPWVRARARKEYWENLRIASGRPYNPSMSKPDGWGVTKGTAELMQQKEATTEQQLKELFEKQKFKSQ
# [2] = biological target: T2, TPMT (Homo sapiens, UniProt P51580); conditions: data referred to for comparison; cited from earlier work
# T2 construct: made in house
# T2 sequence (P51580 1-245): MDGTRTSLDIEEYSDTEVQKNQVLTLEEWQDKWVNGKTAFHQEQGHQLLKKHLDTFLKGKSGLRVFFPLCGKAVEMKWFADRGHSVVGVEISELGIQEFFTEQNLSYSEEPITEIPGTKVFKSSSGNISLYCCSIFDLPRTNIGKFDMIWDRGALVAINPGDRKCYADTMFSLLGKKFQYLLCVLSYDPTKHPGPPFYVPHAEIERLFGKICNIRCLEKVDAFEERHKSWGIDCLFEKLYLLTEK
# [3] = biological target: T2, TPMT; assay: specificity assay with AdoVin (time-dependent UV absorbance change); type: biochemical; conditions: FIG. 34
# From the text: In comparison, the concentration of 4-methoxybenzylthiol decreased in the presence of AdoVin, indicating a reaction with AdoVin.
# [4] = tested on: trypanosomes; conditions: Goldberg 1997; cited from earlier work
# [5] = tested on: Candida albicans and various Aspergillus species; conditions: cited from earlier work
# [6] = tested on: mammalian cells; conditions: cited from earlier work
# [7] = tested on: Leishmania promastigotes; conditions: Lawrence 1993, Avila 1993; cited from earlier work
# [8] = tested on: cells; conditions: cited from earlier work
# [9] = biological target: T3, histidine-tagged TPMT enzyme (Homo sapiens, UniProt P51580); assay: AdoVin-TNB binding assay, histidine-tagged TPMT isolated using nickel spin column; conditions: XIC (FIG. 30 top panel)
# T3 construct: made in house
# T3 sequence (P51580 1-245): T2 sequence (P51580 1-245)
# Procedure: The histidine-tagged TPMT enzyme was isolated using nickel spin column. 610.0 m/z at 8.6 min is for the TNB-AdoVin adduct (confirmed by tandem mass analysis), 411.0 m/z at 1.6 min is for AdoVin, and 162.0 m/z at 6.2 min is for vinthionine. […] The peak around 1.58 minutes with m/z 411.0 corresponds to AdoVin, while the peak around 6.2 min with m/z 162.0 corresponds to vinthionine.
# Recombinant histidine-tagged human thiopurine methyltransferase (TPMT, EC 2.1.1.67) and S-adenosylhomocysteine nucleosidase (MTAN, EC 3.2.2.9) were purified as described. See Cannon, L. M. et al. Anal. Biochem. 2002, 308, 35/-363; Lee, J. E. et al. Acta Crystallogr. D. Biol. Crystallogr. 2001, 57, 150-152. The recombinant E. coli homocysteine S-methyltransferase (HMT, EC 2.1.1.10) was a gift from Steven G Clark (UCLA Department of Chemistry and Biochemistry, Los Angeles, Calif.), and purified as described. See Vinci, C. R.; Clarke, S. G. J. Biol. Chem. 2010, 285(27), 20526-20531; Vinci, C. R.; Clarke, S. G. J. Biol. Chem. 2007, 282(12), 8604-8612.
smiles,measurement,setting,value
C=CSCCC(N)C(=O)O (racemic) [DL-S-Vinylhomocysteine],inhibition of human betaine-homocysteine S-methyltransferase,[1],not to be an inhibitor
COc1ccc(CS)cc1 [4-methoxybenzylthiol],reaction with AdoMet (the natural substrate for TPMT),[2],reacts
same,time-dependent UV absorbance / concentration change in the presence of AdoVin,[3],decreased
O=[N+]([O-])c1ccc(O)cc1 [4-nitrophenol],reaction with AdoMet (the natural substrate for TPMT),[2],does not react
same,time-dependent UV absorbance / concentration change in the presence of AdoVin,[3],No change was observed
"C[S+](CC[C@H](N)C(=O)[O-])C[C@H]1O[C@@H](n2cnc3c(N)ncnc32)[C@H](O)[C@@H]1O (stereo partly drawn) [AdoMet, S-Adenosyl-methionine]",active transport into trypanosomes,[4],actively transported
same,active transport into Candida albicans and various Aspergillus species,[5],actively transported
same,active transport into mammalian cells,[6],not actively transported
same,active transport into Leishmania promastigotes,[7],actively transported
C=CSCC[C@H](N)C(=O)O [L-S-Vinylhomocysteine],active transport into cells,[8],actively transported into cells
"C=CSCC[C@H](N)C(=O)O [vinthionine, S-Demethyl-5-vinyl-L-methionine]",cell permeability,[8],cell permeable
same,presence in the enzyme complex,[9],absence
